The supplement of paper PMC10307832

Experiments:
Test in all cases: relative viability (nuclei count vs DMSO), 5 days (fraction); higher = more cells survive
EMC-BAC-2 = tested on: EMC-BAC-2
Method in brief: (§1)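 Lung cancer cell lines were seeded in 1536-well plates and dosed by pin tool the next day, with either a single drug or a fixed anchor-drug dose combined with five library-drug doses (not always all listed) spaced in √10 steps. Five days later, one step fixed the cells and stained their nuclei (final 0.05% Triton X-100, 1% formaldehyde, 1 ug/ml Hoechst), and nuclei were counted on 4× images. Relative viability is the nuclei count in treated wells divided by the count in vehicle wells, and each value is the median of duplicate plates.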

EPLC-272H = tested on: EPLC-272H
Method in brief: as §1

H3255 = tested on: H3255
Method in brief: as §1

HOP-62 = tested on: HOP-62
Method in brief: as §1

LCLC-97TM1 = tested on: LCLC-97TM1
Method in brief: as §1

LXF-289 = tested on: LXF-289
Method in brief: as §1

NCI-H1563 = tested on: NCI-H1563
Method in brief: as §1

NCI-H1650 = tested on: NCI-H1650
Method in brief: as §1

NCI-H1915 = tested on: NCI-H1915
Method in brief: as §1

NCI-H1993 = tested on: NCI-H1993
Method in brief: as §1

NCI-H2009 = tested on: NCI-H2009
Method in brief: as §1

NCI-H2023 = tested on: NCI-H2023
Method in brief: as §1

NCI-H2085 = tested on: NCI-H2085
Method in brief: as §1

NCI-H2126 = tested on: NCI-H2126
Method in brief: as §1

NCI-H2342 = tested on: NCI-H2342
Method in brief: as §1

NCI-H2347 = tested on: NCI-H2347
Method in brief: as §1

NCI-H322M = tested on: NCI-H322M
Method in brief: as §1

NCI-H647 = tested on: NCI-H647
Method in brief: as §1

NCI-H661 = tested on: NCI-H661
Method in brief: as §1

NCI-H727 = tested on: NCI-H727
Method in brief: as §1

PC-14 = tested on: PC-14
Method in brief: as §1

SK-LU-1 = tested on: SK-LU-1
Method in brief: as §1

SW 1573 = tested on: SW 1573
Method in brief: as §1

NC(=O)Nc1cc(-c2cccc(F)c2)sc1C(=O)N[C@H]1CCCNC1 [AZD7762] + CCNC(=O)c1noc(-c2cc(C(C)C)c(O)cc2O)c1-c1ccc(CN2CCOCC2)cc1 [Luminespib] (partner 0.01 µM)
relative viability (EMC-BAC-2; first compound 0.01 µM): 1.23 | relative viability (EMC-BAC-2; first compound 0.03162 µM): 1.16 | relative viability (EMC-BAC-2; first compound 0.1 µM): 1.19 | relative viability (EMC-BAC-2; first compound 0.3162 µM): 1.23 | relative viability (EMC-BAC-2; first compound 1 µM): 1.04 | relative viability (EPLC-272H; first compound 0.01 µM): 0.55 | relative viability (EPLC-272H; first compound 0.03162 µM): 0.303 | relative viability (EPLC-272H; first compound 0.1 µM): 0.319 | relative viability (EPLC-272H; first compound 0.3162 µM): 0.459 | relative viability (EPLC-272H; first compound 1 µM): 0.143 | relative viability (H3255; first compound 0.01 µM): 1.02 | relative viability (H3255; first compound 0.03162 µM): 0.982 | relative viability (H3255; first compound 0.1 µM): 0.975 | relative viability (H3255; first compound 0.3162 µM): 0.913 | relative viability (H3255; first compound 1 µM): 0.962 | relative viability (HOP-62; first compound 0.01 µM): 0.983 | relative viability (HOP-62; first compound 0.03162 µM): 0.931 | relative viability (HOP-62; first compound 0.1 µM): 0.606 | relative viability (HOP-62; first compound 0.3162 µM): 0.902 | relative viability (HOP-62; first compound 1 µM): 0.65 | relative viability (LCLC-97TM1; first compound 0.01 µM): 0.876 | relative viability (LCLC-97TM1; first compound 0.03162 µM): 0.706 | relative viability (LCLC-97TM1; first compound 0.1 µM): 0.738 | relative viability (LCLC-97TM1; first compound 0.3162 µM): 0.771 | relative viability (LCLC-97TM1; first compound 1 µM): 0.786 | relative viability (LXF-289; first compound 0.01 µM): 0.673 | relative viability (LXF-289; first compound 0.03162 µM): 0.601 | relative viability (LXF-289; first compound 0.1 µM): 0.753 | relative viability (LXF-289; first compound 0.3162 µM): 0.724 | relative viability (LXF-289; first compound 1 µM): 0.456 | relative viability (NCI-H1563; first compound 0.01 µM): 0.524 | relative viability (NCI-H1563; first compound 0.03162 µM): 0.507 | relative viability (NCI-H1563; first compound 0.1 µM): 0.523 | relative viability (NCI-H1563; first compound 0.3162 µM): 0.505 | relative viability (NCI-H1563; first compound 1 µM): 0.475 | relative viability (NCI-H1650; first compound 0.01 µM): 0.191 | relative viability (NCI-H1650; first compound 0.03162 µM): 0.175 | relative viability (NCI-H1650; first compound 0.1 µM): 0.22 | relative viability (NCI-H1650; first compound 0.3162 µM): 0.186 | relative viability (NCI-H1650; first compound 1 µM): 0.192 | relative viability (NCI-H1915; first compound 0.01 µM): 0.828 | relative viability (NCI-H1915; first compound 0.03162 µM): 0.829 | relative viability (NCI-H1915; first compound 0.1 µM): 0.743 | relative viability (NCI-H1915; first compound 0.3162 µM): 0.555 | relative viability (NCI-H1915; first compound 1 µM): 0.434 | relative viability (NCI-H1993; first compound 0.01 µM): 1.04 | relative viability (NCI-H1993; first compound 0.03162 µM): 0.948 | relative viability (NCI-H1993; first compound 0.1 µM): 0.81 | relative viability (NCI-H1993; first compound 0.3162 µM): 0.971 | relative viability (NCI-H1993; first compound 1 µM): 0.678 | relative viability (NCI-H2009; first compound 0.01 µM): 1.06 | relative viability (NCI-H2009; first compound 0.03162 µM): 0.975 | relative viability (NCI-H2009; first compound 0.1 µM): 1.12 | relative viability (NCI-H2009; first compound 0.3162 µM): 0.935 | relative viability (NCI-H2009; first compound 1 µM): 0.663 | relative viability (NCI-H2023; first compound 0.01 µM): 0.824 | relative viability (NCI-H2023; first compound 0.03162 µM): 0.498 | relative viability (NCI-H2023; first compound 0.1 µM): 0.228 | relative viability (NCI-H2023; first compound 0.3162 µM): 0.141 | relative viability (NCI-H2023; first compound 1 µM): 0.114 | relative viability (NCI-H2085; first compound 0.01 µM): 0.47 | relative viability (NCI-H2085; first compound 0.03162 µM): 0.468 | relative viability (NCI-H2085; first compound 0.1 µM): 0.475 | relative viability (NCI-H2085; first compound 0.3162 µM): 0.459 | relative viability (NCI-H2085; first compound 1 µM): 0.374 | relative viability (NCI-H2126; first compound 0.01 µM): 0.922 | relative viability (NCI-H2126; first compound 0.03162 µM): 0.914 | relative viability (NCI-H2126; first compound 0.1 µM): 0.833 | relative viability (NCI-H2126; first compound 0.3162 µM): 0.802 | relative viability (NCI-H2126; first compound 1 µM): 0.456 | relative viability (NCI-H2342; first compound 0.01 µM): 0.69 | relative viability (NCI-H2342; first compound 0.03162 µM): 0.696 | relative viability (NCI-H2342; first compound 0.1 µM): 0.731 | relative viability (NCI-H2342; first compound 0.3162 µM): 0.819 | relative viability (NCI-H2342; first compound 1 µM): 0.676 | relative viability (NCI-H2347; first compound 0.01 µM): 0.417 | relative viability (NCI-H2347; first compound 0.03162 µM): 0.573 | relative viability (NCI-H2347; first compound 0.1 µM): 0.715 | relative viability (NCI-H2347; first compound 0.3162 µM): 0.396 | relative viability (NCI-H2347; first compound 1 µM): 0.63 | relative viability (NCI-H322M; first compound 0.01 µM): 0.851 | relative viability (NCI-H322M; first compound 0.03162 µM): 0.827 | relative viability (NCI-H322M; first compound 0.1 µM): 0.357 | relative viability (NCI-H322M; first compound 0.3162 µM): 0.248 | relative viability (NCI-H322M; first compound 1 µM): 0.245 | relative viability (NCI-H647; first compound 0.01 µM): 0.118 | relative viability (NCI-H647; first compound 0.03162 µM): 0.163 | relative viability (NCI-H647; first compound 0.1 µM): 0.0996 | relative viability (NCI-H647; first compound 0.3162 µM): 0.119 | relative viability (NCI-H647; first compound 1 µM): 0.101 | relative viability (NCI-H661; first compound 0.01 µM): 1.01 | relative viability (NCI-H661; first compound 0.03162 µM): 1 | relative viability (NCI-H661; first compound 0.1 µM): 1.02 | relative viability (NCI-H661; first compound 0.3162 µM): 0.971 | relative viability (NCI-H661; first compound 1 µM): 0.417 | relative viability (NCI-H727; first compound 0.01 µM): 0.24 | relative viability (NCI-H727; first compound 0.03162 µM): 0.499 | relative viability (NCI-H727; first compound 0.1 µM): 0.291 | relative viability (NCI-H727; first compound 0.3162 µM): 0.325 | relative viability (NCI-H727; first compound 1 µM): 0.279 | relative viability (PC-14; first compound 0.01 µM): 0.162 | relative viability (PC-14; first compound 0.03162 µM): 0.199 | relative viability (PC-14; first compound 0.1 µM): 0.16 | relative viability (PC-14; first compound 0.3162 µM): 0.118 | relative viability (PC-14; first compound 1 µM): 0.136 | relative viability (SK-LU-1; first compound 0.01 µM): 0.193 | relative viability (SK-LU-1; first compound 0.03162 µM): 0.209 | relative viability (SK-LU-1; first compound 0.1 µM): 0.192 | relative viability (SK-LU-1; first compound 0.3162 µM): 0.206 | relative viability (SK-LU-1; first compound 1 µM): 0.123 | relative viability (SW 1573; first compound 0.01 µM): 0.885 | relative viability (SW 1573; first compound 0.03162 µM): 0.272 | relative viability (SW 1573; first compound 0.1 µM): 0.166 | relative viability (SW 1573; first compound 0.3162 µM): 0.169 | relative viability (SW 1573; first compound 1 µM): 0.161
